Values after ≈ are worked out from the molar mass of the structure shown. Values joined by “and” are separate entries in the source; they are usually repeats but may differ in a detail not shown here. Equal entries are not always repeated. Where two headings read alike, the source gives them in different places.
Molecular target: T1, acetylcholinesterase (from human erythrocytes) (Homo sapiens, UniProt P22303)
T1 construct: acetylcholinesterase (from human erythrocytes, purchased from Sigma-Aldrich, Seoul, Korea); purchased Sigma-Aldrich, Seoul, Korea; host or cells: human erythrocytes (natural source)
T1 sequence (P22303 32-617 isoform P22303-2 limits assumed): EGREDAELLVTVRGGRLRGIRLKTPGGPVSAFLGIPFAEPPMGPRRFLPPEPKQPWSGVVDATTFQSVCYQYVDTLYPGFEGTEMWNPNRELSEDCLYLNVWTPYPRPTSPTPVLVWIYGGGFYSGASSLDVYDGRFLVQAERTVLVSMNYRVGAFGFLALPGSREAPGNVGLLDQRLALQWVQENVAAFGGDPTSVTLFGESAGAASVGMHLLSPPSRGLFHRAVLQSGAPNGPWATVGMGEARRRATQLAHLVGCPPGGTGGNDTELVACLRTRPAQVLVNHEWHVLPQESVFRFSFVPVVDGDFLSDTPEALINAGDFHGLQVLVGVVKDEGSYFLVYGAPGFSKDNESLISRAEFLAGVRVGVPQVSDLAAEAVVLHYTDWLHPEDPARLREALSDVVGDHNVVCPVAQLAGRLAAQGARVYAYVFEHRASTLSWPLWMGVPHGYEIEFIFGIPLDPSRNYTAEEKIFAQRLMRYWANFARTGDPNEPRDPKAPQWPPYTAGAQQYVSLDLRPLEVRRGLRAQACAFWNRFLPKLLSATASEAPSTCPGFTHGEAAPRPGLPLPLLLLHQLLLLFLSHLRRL
Experiment: biochemical
Set-up: LogIC50 (best-fit value): unit not given here
Settings: for inhibition (Mean): mean of three; for IC50 (best-fit value): unit not given
Method: The inhibitory activities of synthesized compounds were determined spectrophotometrically using acetylthiocholine iodide as substrate by following the method of ([Ellman et al., 1961]). Briefly, The assay solution consisted of 180 µL of 50 mM Tris-HCl buffer, pH 7.7, containing (0.1 M sodium chloride and 0.02 M magnesium chloride) and 20 µL of enzyme (AChE, EC 3.1.1.7), acetylcholinesterase (from human erythrocytes, purchased from Sigma-Aldrich, Seoul, Korea) solution (50 U per well); increasing concentrations of test compounds (10 µL) were added to the assay solution and pre incubated for 30 min at 4 °C. After that 5,5′ Dithiobis (2 nitrobenzoic acid) (0.3 mM, 20 µL) and acetylthiocholine iodide (1.8 mM, 20 µL) were added to the reaction mixture and incubated at 37 °C for 10 min, followed by the measurement of absorbance at 412 nm. For non-enzymatic reaction, the assays were carried out with a blank containing all components except acetylcholinesterase. The assay measurements were measured at 412 nm using a micro plate reader (OPTI Max Tunable; Molecular Devices, Sunnyvale, CA, USA) having a wave-length range from 340–850 nm; for 96 well plates. The reaction rates were compared and percent inhibition was calculated due to the presence of tested inhibitors. […] Each concentration was analyzed in three independent experiments run in triplicate. The IC50 values were calculated by nonlinear regression using GraphPad Prism 5.0.
The % of Inhibition of Acetylcholinesterase was calculated as following: Inhibition%=B−S∕B×100. Here, the B and S are the absorbance’s for the blank and samples.

[1] = each of three independent experiments, Raw Data of IC50 sheet, read-out: IC50, single experiment (converted)
[2] = from human erythrocytes, mean ± SEM, read-out: Acetylcholinesterase IC50 ± SEM
[3] = mean converted to uM, Raw Data of IC50 sheet, read-out: IC50
[4] = mean of three experiments, Raw Data of IC50 sheet, read-out: IC50 (Mean) (converted)
[5] = values as printed in abstract and discussion, read-out: acetylcholinesterase IC50
[6] = log(inhibitor) vs. response fit, single run, IC50 Raw Data sheet
[7] = log(inhibitor) vs. response fit, single run, unit inferred, IC50 Raw Data sheet, read-out: IC50 (best-fit value) (converted)
[8] = Conc: 0.0306373 (unit not given), Raw Data of IC50 sheet
[9] = Conc: 0.0612745 (unit not given), Raw Data of IC50 sheet
[10] = Conc: 0.122549 (unit not given), Raw Data of IC50 sheet
[11] = Conc: 0.245098 (unit not given), Raw Data of IC50 sheet
[12] = Conc: 0.490196 (unit not given), Raw Data of IC50 sheet
[13] = Conc: 0.980392 (unit not given), Raw Data of IC50 sheet
[14] = Conc: 1.96078 (unit not given), Raw Data of IC50 sheet
[15] = Conc: 3.92157 (unit not given), Raw Data of IC50 sheet
[16] = Concentration 0.0306373 (unit not given), IC50 Raw Data sheet
[17] = Concentration 0.0612745 (unit not given), IC50 Raw Data sheet
[18] = Concentration 0.122549 (unit not given), IC50 Raw Data sheet
[19] = Concentration 0.245098 (unit not given), IC50 Raw Data sheet
[20] = Concentration 0.490196 (unit not given), IC50 Raw Data sheet
[21] = Concentration 0.980392 (unit not given), IC50 Raw Data sheet
[22] = Concentration 1.96078 (unit not given), IC50 Raw Data sheet
[23] = Concentration 3.92157 (unit not given), IC50 Raw Data sheet
[24] = each of three independent experiments, Raw Data of IC50 sheet
[25] = mean of three experiments, Raw Data of IC50 sheet

CCN(CCc1ccc(OC)cc1)S(=O)(=O)c1ccc(C)cc1 [Compound 5a, N-Ethyl-N-(4-methoxyphenethyl)-4-methylbenzensulfonamide]
IC50 [1]: 25 µM and 21 µM and 21.6 µM
IC50 [2]: 22.5 ± 1.23 µM
IC50 [3]: 22.5 µM
IC50 [4]: 22.5 µM

CCCN(CCc1ccc(OC)cc1)S(=O)(=O)c1ccc(C)cc1 [Compound 5b, N-(4-Methoxyphenethyl)-4-methyl-N-(1-propyl)benzensulfonamide]
IC50 [1]: 4.77 µM and 3.7 µM and 4.01 µM
IC50 [2]: 4.16 ± 0.318 µM
IC50 [3]: 4.16 µM
IC50 [4]: 4.16 µM
IC50 [5]: 0.119 µM

CCCCN(CCc1ccc(OC)cc1)S(=O)(=O)c1ccc(C)cc1 [Compound 5d, N-(1-Butyl)-N-(4-methoxyphenethyl)-4-methylbenzensulfonamide]
IC50 [1]: 0.0997 µM and 0.134 µM
IC50 [2]: 0.12 ± 0.0102 µM
LogIC50 (best-fit value) [6]: -1.347
IC50 [7]: 0.125 µM
IC50 [3]: 0.12 µM
IC50 [4]: 0.12 µM
IC50 [5]: 0.124 ± 0.021 µM

CCCCCN(CCc1ccc(OC)cc1)S(=O)(=O)c1ccc(C)cc1 [Compound 5e, N-(4-Methoxyphenethyl)-4-methyl-N-(1-pentyl)benzensulfonamide]
IC50 [1]: 0.374 µM and 0.414 µM and 0.406 µM
IC50 [2]: 0.398 ± 0.0123 µM
LogIC50 (best-fit value) [6]: -0.8411
IC50 [7]: 0.384 µM
IC50 [3]: 0.398 µM
IC50 [4]: 0.398 µM

CCCCCCCN(CCc1ccc(OC)cc1)S(=O)(=O)c1ccc(C)cc1 [Compound 5f, N-(1-Heptyl)-N-(4-methoxyphenethyl)-4-methylbenzensulfonamide]
IC50 [1]: 0.474 µM and 0.427 µM
IC50 [2]: 0.444 ± 0.015 µM
LogIC50 (best-fit value) [6]: -0.759
IC50 [7]: 0.432 µM
IC50 [3]: 0.444 µM
IC50 [4]: 0.444 µM

COc1ccc(CCN(CCCc2ccccc2)S(=O)(=O)c2ccc(C)cc2)cc1 [Compound 5g, N-(4-Methoxyphenethyl)-4-methyl-N-(3-phenyl-1-propyl) benzensulfonamide]
inhibition, single experiment [8]: 16.111 and 16.8631
inhibition (Mean) [8]: 16.1834
inhibition, single experiment [9]: 30.2326 and 29.5369
inhibition (Mean) [9]: 29.6527
inhibition, single experiment [10]: 32.9175 and 33.3333
inhibition (Mean) [10]: 32.8451
inhibition, single experiment [11]: 43.5555 and 42.1199
inhibition (Mean) [11]: 42.7571
inhibition, single experiment [12]: 49.3413 and 49.9987
inhibition (Mean) [12]: 49.6905
inhibition, single experiment [13]: 59.3325 and 58.7749
inhibition (Mean) [13]: 59.2851
inhibition, single experiment [14]: 66.9964 and 65.1126
inhibition (Mean) [14]: 66.1998
inhibition, single experiment [15]: 74.8965 and 74.0186
inhibition (Mean) [15]: 74.3992
% inhibition [16]: 15.576%
% inhibition [17]: 32.2845%
% inhibition [18]: 29.1886%
% inhibition [19]: 42.5959%
% inhibition [20]: 49.7315%
% inhibition [21]: 59.7479%
% inhibition [22]: 66.4906%
% inhibition [23]: 74.2824%
IC50, single experiment [24]: 0.3267 µg/mL and 0.3464 µg/mL and 0.341 µg/mL
IC50 [2]: 0.798 ± 0.0138 µM
LogIC50 (best-fit value) [6]: -0.4313
IC50 (best-fit value) [6]: 0.3704
IC50 [3]: 0.798 µM
IC50 (Mean) [25]: 0.338 µg/mL (≈ 0.798 µM)

COc1ccc(CCN(Cc2ccccc2C)S(=O)(=O)c2ccc(C)cc2)cc1 [Compound 5h, N-(4-Methoxyphenethyl)-4-methyl-N-(2-methylbenzyl) benzensulfonamide]
inhibition, single experiment [8]: 41.4444 and 41.0099
inhibition (Mean) [8]: 40.984
inhibition, single experiment [9]: 45.3557 and 45.1011
inhibition (Mean) [9]: 44.9216
inhibition, single experiment [10]: 50.9025 and 51.1299
inhibition (Mean) [10]: 51.0341
inhibition, single experiment [11]: 63.8777 and 63.001
inhibition (Mean) [11]: 63.2456
inhibition, single experiment [12]: 71.1111 and 70.9965
inhibition (Mean) [12]: 70.8325
inhibition, single experiment [13]: 78.3125 and 78.8745
inhibition (Mean) [13]: 78.5659
inhibition, single experiment [14]: 83.9784 and 86.5532
inhibition (Mean) [14]: 85.3051
inhibition, single experiment [15]: 96.8547 and 96.1111
inhibition (Mean) [15]: 96.3251
% inhibition [16]: 40.4976%
% inhibition [17]: 44.3081%
% inhibition [18]: 51.0699%
% inhibition [19]: 62.858%
% inhibition [20]: 70.3899%
% inhibition [21]: 78.5107%
% inhibition [22]: 85.3837%
% inhibition [23]: 96.0094%
IC50, single experiment [24]: 0.4151 µg/mL and 0.4171 µg/mL
IC50 [2]: 1.011 ± 0.0053 µM
LogIC50 (best-fit value) [6]: -0.3874
IC50 (best-fit value) [6]: 0.4098
IC50 [3]: 1.01 µM
IC50 (Mean) [25]: 0.414 µg/mL (≈ 1.01 µM)

COc1ccc(CCN(Cc2cccc(C)c2)S(=O)(=O)c2ccc(C)cc2)cc1 [Compound 5i, N-(4-Methoxyphenethyl)-4-methyl-N-(3-methylbenzyl) benzensulfonamide]
inhibition, single experiment [8]: 38.1497 and 38.771
inhibition (Mean) [8]: 38.1601
inhibition, single experiment [9]: 45.4473 and 46.02
inhibition (Mean) [9]: 45.6873
inhibition, single experiment [10]: 56.7855 and 56.3378
inhibition (Mean) [10]: 56.078
inhibition, single experiment [11]: 70.5479 and 70.7214
inhibition (Mean) [11]: 71.0257
inhibition, single experiment [12]: 74.2589 and 75.8888
inhibition (Mean) [12]: 75.1591
inhibition, single experiment [13]: 78.1111 and 76.8876
inhibition (Mean) [13]: 77.3479
inhibition, single experiment [14]: 87.2875 and 87.9775
inhibition (Mean) [14]: 87.5273
inhibition, single experiment [15]: 97.778 and 97.9734
inhibition (Mean) [15]: 97.9676
% inhibition [16]: 37.5596%
% inhibition [17]: 45.5947%
% inhibition [18]: 55.1106%
% inhibition [19]: 71.8079%
% inhibition [20]: 75.3297%
% inhibition [21]: 77.0449%
% inhibition [22]: 87.3169%
% inhibition [23]: 98.1514%
IC50, single experiment [24]: 0.1949 µg/mL and 0.1984 µg/mL
IC50 [2]: 0.47 ± 0.0109 µM
LogIC50 (best-fit value) [6]: -0.7362
IC50 (best-fit value) [6]: 0.1836
IC50 [3]: 0.47 µM
IC50 (Mean) [25]: 0.1923 µg/mL (≈ 0.47 µM)

COc1ccc(CCN(Cc2ccc(C)cc2)S(=O)(=O)c2ccc(C)cc2)cc1 [Compound 5j, N-(4-Methoxyphenethyl)-4-methyl-N-(4-methylbenzyl) benzensulfonamide]
inhibition, single experiment [8]: 17.2222 and 17.1022
inhibition (Mean) [8]: 17.3151
inhibition, single experiment [9]: 31.4199 and 30.0777
inhibition (Mean) [9]: 30.8306
inhibition, single experiment [10]: 36.8749 and 37.0114
inhibition (Mean) [10]: 36.7468
inhibition, single experiment [11]: 48.1258 and 49.804
inhibition (Mean) [11]: 49.2304
inhibition, single experiment [12]: 54.7822 and 55.2287
inhibition (Mean) [12]: 55.0656
inhibition, single experiment [13]: 59.1009 and 58.8888
inhibition (Mean) [13]: 59.2947
inhibition, single experiment [14]: 65.9226 and 65.7652
inhibition (Mean) [14]: 65.7178
inhibition, single experiment [15]: 90.0712 and 89.7746
inhibition (Mean) [15]: 89.7021
% inhibition [16]: 17.621%
% inhibition [17]: 30.9943%
% inhibition [18]: 36.3541%
% inhibition [19]: 49.7613%
% inhibition [20]: 55.1859%
% inhibition [21]: 59.8945%
% inhibition [22]: 65.4657%
% inhibition [23]: 89.2606%
IC50, single experiment [24]: 0.5355 µg/mL and 0.4119 µg/mL
IC50 [2]: 1.11 ± 0.0999 µM
LogIC50 (best-fit value) [6]: -0.3835
IC50 (best-fit value) [6]: 0.4136
IC50 [3]: 1.11 µM
IC50 (Mean) [25]: 0.4537 µg/mL (≈ 1.11 µM)
